How the values were obtained:
[1] = system: Acinetobacter baumannii ATCC 19606; test: Single-dose growth inhibition, Ab; format: cell-based; details: ATCC19606, 32 μg/mL single dose, n=2, read-out: Growth inhibition Ab
Method: (§1) Inhibition of bacterial growth was determined by measuring the absorbance at 600 nm (OD600), using a Tecan M1000 Pro monochromator plate reader. Growth inhibition was calculated for each well, relative to the reference growths determined from a negative control (media only) and positive control (bacteria without inhibitors) incubated in the same plate. A single dose of 32 μg/mL of COE (final concentration) was used for each test.
(§2) Percentage growth inhibition of an individual sample was calculated based on growth in a reference well determined from negative controls (media only) and positive controls (bacterial/fungal media without inhibitors). Negative inhibition values indicate that the growth rate (or OD600) is higher compared to the reference growth (bacteria/fungi only, set to 0% inhibition). The growth rates for all bacteria and fungi may vary at −/+10%, which were within the reported normal distribution of bacterial/fungal growth. Any significant variations (or outliers/hits) were identified by the modified Z-Score, and the active compounds were selected by a combination of inhibition values and Z-Score.
(§3) A M(i) value of >|2.5| (absolute) would classify the sample as outliers or hits. Active samples were denoted as compounds with inhibition values equal to or above 80% and absolute Z-Score above |2.5| for either replicate (n=2 on different plates). Partial active samples were denoted as compounds with inhibition values from 50% to <80%, or absolute Z-Score below |2.5|.

[2] = system: organism classes (Gram-negative, Gram-positive and fungi); test: Single-dose screening summary by organism class; format: cell-based; details: 32 μg/mL; 0 = no activity
Method: as §2
Z-Score analysis was carried out to investigate outliers or hits among the samples. The Z-Score was calculated based on the sample population using a modified Z-Score method which accounts for possible skewed sample population. The modified method uses median and MAD ([…]) instead of average and standard deviation, and a scaling factor (Iglewicz, B. & Hoaglin, D. C. Volume 16: How to Detect and Handle Outliers. The ASQC Basic Reference in Quality Control: Statistical Techniques, 1993). The equation to calculate the modified Z-Score value is as follow: […]
as §3

[3] = system: Cryptococcus neoformans var. grubii H99; ATCC 208821; test: Single-dose growth inhibition, Cn; format: cell-based; details: ATCC208821, 32 μg/mL single dose, n=2, read-out: Growth inhibition Cn
Method: (§4) Growth inhibition of C. albicans was determined by measuring the absorbance at 530 nm (OD530), while the growth inhibition of C. neoformans was determined by measuring the difference in absorbance between 600 and 570 nm (OD600-570), after the addition of resazurin (0.001 wt. % final concentration) and incubation at 35° C. for additional 2 hrs. The absorbance was measured using a Biotek Synergy HTX plate reader. The relative growth inhibition was calculated for each well, relative to that determined from a negative control (media only) and positive control (bacteria without inhibitors) on the same plate as references. A single dose of 32 μg/mL of COE (final concentration) was used for each test.
as §2, §3

[4] = system: Escherichia coli FDA control ATCC 25922; test: Single-dose growth inhibition, Ec; format: cell-based; details: ATCC25922, 32 μg/mL single dose, n=2, read-out: Growth inhibition Ec
Method: as §1, §2, §3

[5] = system: Candida albicans ATCC 90028; test: Single-dose growth inhibition, Ca; format: cell-based; details: ATCC90028, 32 μg/mL single dose, n=2, read-out: Growth inhibition Ca
Method: as §4, §2, §3

[6] = system: Klebsiella pneumoniae MDR ATCC 700603; test: Single-dose growth inhibition, Kp; format: cell-based; details: ATCC700603, 32 μg/mL single dose, n=2, read-out: Growth inhibition Kp
Method: as §1, §2, §3

E. coli K12 = test: MIC by broth microdilution against E. coli K12; format: cell-based; details: Escherichia coli, K12; broth microdilution, MHB, 18 hrs; read-out: MIC against E. coli K12
Method: (§5) The respective minimum inhibition concentration (MIC) of each COE molecule was determined using a broth microdilution method. Briefly, COEs were diluted via a 2-fold dilution series in 100 μL of either Muller Hinton Broth (MHB) for E. coli and S. aureus or Brain Heart Infusion Broth (BHI) for E. faecalis in a 96-well plate to achieve the desired final concentration. Subsequently, each well was inoculated with 100 μL of 1×10^6 colony forming units (CFU) mL^−1 of the respective microorganism in MHB for E. coli or BHI for E. faecalis to achieve an inoculum density of 5×10^5 CFU mL^−1. The plates were then incubated at 37° C. with shaking (200 rpm) for 18 hrs. […] The results were obtained in triplicate.
The MIC values of COE-D4, COE-D6 and COE-D8 against the reference strain E. coli K12, pathogenic E. coli UT189, and the Gram positive pathogen Enterococcus faecalis OG1RF were determined using a broth microdilution method as described in the general method above. The MICs for E. coli K12 were determined to be 128, 16, and 4 μg mL^−1 for COE-D4, COE-D6, and COE-D8, respectively (FIG. 5a). […] This is not surprising as these two organisms differ in the capsular polysaccharides that they expressed, which are known to hinder the uptake of antimicrobials and mitigate their potency (M. A. Campos, et al., Infect. Immun. 2004, 72, 7107-7114). A K-type capsid comprising α2-8-linked sialic acid is excreted by UT189 and is known to be an important virulence factor for this organism (C. Whitfield, et al., Mol. Microbiol. 1999, 31, 1307-1319; G. G. Anderson, et al., Infect. Immun. 2010, 78, 963-975).

[7] = system: Pseudomonas aeruginosa (PAO1) biofilm; test: Anti-biofilm assay (MBEC plate, crystal violet); format: cell-based; details: P. aeruginosa PAO1 biofilm, 1 hour challenge in M9GC
Method: Pseudomonas aeruginosa (PAO1) was grown in Luria-Bertani (LB) broth under shaking (200 rpm) at 37° C. for 16-18 hours. The overnight culture was diluted to 1:200 in M9GC media (M9 medium supplemented with glucose and casamino acids), and 200 μL of diluted culture was added to each well of MBEC plate (Innovotech, Canada). After incubating at 37° C. for 5 hours under shaking (200 rpm), biofilm was formed on the pegs of the MBEC plate. The pegs were then rinsed with 1× phosphate buffered saline (PBS) solution (200 μL per well), and exposed to a two-fold dilution series of COE in M9GC media (200 μL per well). The challenge plate was incubated at 37° C. for 1 hour under shaking (200 rpm), and then the pegs were washed using 200 μL PBS before being dipped into 180 μL 0.1 wt. % crystal violet aqueous solution. After incubating at room temperature for 15 minutes, the pegs were rinsed with PBS twice and transferred to a plate containing 200 μL absolute ethanol in each well for 15 minutes. The biofilm mass was quantified by measuring the absorption of crystal violet/ethanol solution at 550 nm. The minimum biofilm dispersal concentration (MBDC) values were determined as the lowest COE concentration at which biofilm attached on the peg was completely dispersed. The results were repeated in triplicate.

[8] = system: Staphylococcus aureus MRSA ATCC 43300; test: Single-dose growth inhibition, Sa; format: cell-based; details: 32 μg/mL single dose, n=2, read-out: Growth inhibition Sa
Method: as §1, §2, §3

[9] = system: Staphylococcus aureus 25923; test: MIC against S. aureus 25923; format: cell-based
Method: as §5
The antimicrobial effects of COE-D62N and COE-D82N were also tested on the Gram-positive Staphylococcus aureus 25923 and Methicillin-resistant Staphylococcus aureus(MRSA BAA-40), in comparison with vancomycin (FIG. 5b).

[10] = system: Pseudomonas aeruginosa ATCC 27853; test: Single-dose growth inhibition, Pa; format: cell-based; details: ATCC27853, 32 μg/mL single dose, n=2, read-out: Growth inhibition Pa
Method: as §1, §2, §3

E. faecalis = details: literature (Tran et al. 2013); cited from earlier work
[11] = system: multidrug-resistant Gram-negative bacteria; details: literature (Falagas et al. 2005); cited from earlier work

## C[N+](C)(C)CC[N+](C)(C)CCCCCCOc1ccc(/C=C/c2ccc(/C=C/c3ccc(OCCCCCC[N+](C)(C)CC[N+](C)(C)C)cc3)cc2)cc1 [COE-T62]
[1]
  inhibition at 32 µg/mL: < 50%
[2]
  Activity: number of organism classes the compound has been found active against: 3
[3]
  inhibition at 32 µg/mL: > 80%
[4]
  inhibition at 32 µg/mL: > 80%
[5]
  inhibition at 32 µg/mL: > 80%
[6]
  inhibition at 32 µg/mL: < 50%
E. coli K12
  MIC: 16 µg/mL
[7]
  Minimum biofilm dispersal concentration: 8 µg/mL
[8]
  inhibition at 32 µg/mL: > 80%
[9]
  MIC: 2 µg/mL
[10]
  inhibition at 32 µg/mL: < 50%

## O=C(O)c1cn(C2CC2)c2cc(N3CCNCC3)c(F)cc2c1=O [Ciprofloxacin]
[7]
  Minimum biofilm dispersal concentration: >512 µg/mL

## NC[C@H]1O[C@H](O[C@H]2[C@H](O)[C@@H](O[C@H]3O[C@H](CO)[C@@H](O)[C@H](N)[C@H]3O)[C@H](N)C[C@@H]2N)[C@H](N)C[C@@H]1O [Tobramycin]
[7]
  Minimum biofilm dispersal concentration: >512 µg/mL

## CCCCCCCCCC(=O)N[C@@H](Cc1c[nH]c2ccccc12)C(=O)N[C@H](CC(N)=O)C(=O)N[C@@H](CC(=O)O)C(=O)N[C@@H]1C(=O)NCC(=O)N[C@@H](CCCN)C(=O)N[C@@H](CC(=O)O)C(=O)N[C@H](C)C(=O)N[C@@H](CC(=O)O)C(=O)NCC(=O)N[C@H](CO)C(=O)N[C@@H]([C@H](C)CC(=O)O)C(=O)N[C@@H](CC(=O)c2ccccc2N)C(=O)O[C@@H]1C [daptomycin]
E. faecalis
  MIC against E. faecalis in brain heart infusion media: around 3 μg mL^−1

## Colistin
[7]
  Minimum biofilm dispersal concentration: 4 µg/mL
[11]
  MIC against multidrug-resistant Gram-negative bacteria (in general): ≤ 4 µg/mL

## Gentamicin
[7]
  Minimum biofilm dispersal concentration: >512 µg/mL
